Results on 15 molecules are retold here after patent US11584755B2 (IDEAYA BIOSCIENCES, INC., priority 2017, dated 2023).

hFEN1, sequence (P39748 whole entry): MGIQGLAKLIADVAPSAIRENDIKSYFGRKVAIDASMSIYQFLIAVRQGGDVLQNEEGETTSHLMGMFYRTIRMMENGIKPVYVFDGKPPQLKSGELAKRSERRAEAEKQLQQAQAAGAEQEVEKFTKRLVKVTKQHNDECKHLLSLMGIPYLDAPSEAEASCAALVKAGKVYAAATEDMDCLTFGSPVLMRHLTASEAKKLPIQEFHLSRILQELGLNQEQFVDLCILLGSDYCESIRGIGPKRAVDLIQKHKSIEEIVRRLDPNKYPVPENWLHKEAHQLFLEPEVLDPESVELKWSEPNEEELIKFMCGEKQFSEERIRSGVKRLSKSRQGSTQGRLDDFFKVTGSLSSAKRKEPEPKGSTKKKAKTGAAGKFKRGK

In the assay the target is hFEN1 (Homo sapiens (Human), UniProt P39748). In words: Enzymatic IC50 assay, FAM-labeled DNA oligomer substrate, fluorescence intensity (FEN1). In kind it is biochemical. The conditions noted are these: hFEN1 70 pM, substrate 100 nM, reaction time 20 minutes, 23° C. The protocol:
FEN1, EXO1 or XPG enzyme was incubated with compound or vehicle (DMSO) and the FAM-labeled DNA oligomer substrate in a microtiter plate. The stop buffer contains EDTA to stop the enzymatic reaction. The plate is read for fluorescence intensity. The high control (DMSO) with high fluorescence intensity represents no inhibition of enzymatic reaction while the low control (10 μM) with low fluorescence intensity represents full inhibition of enzymatic reaction.
• FEN1 • hFEN1: 70 pM • Substrate: 100 nM • Reaction time: 20 minutes • EXO1 • hEXO1: 6 nM, Isoforml • Substrate: 30 nM • Reaction time: 60 minutes • XPG • hXPG: 100 nM • Substrate: 100 nM • Reaction time: 120 minutes
Annealing Buffer: 50 mM Tris-HCl, 50 mM NaCl, 1 mM DTT Assay buffer: 50 mM Tris-HCl pH 8.0, 10 mM MgCl2, 0.01% BSA, 1 mM DTT Stop buffer: 50 mM EDTA in assay buffer Temperature: 23° C. Total volume: 40 μl Controls: • 0% inhibition control: DMSO • 100% inhibition control: 10 μM (final) 5-chloro-3-hydroxy-1,3-dihydroquinazoline-2,4-dione Enzyme Reaction and Detection: • 1. Prepare 25 μM intermediate stock of the substrate by diluting SEQ ID NO:1, SEQ ID NO:2, and SEQ ID NO:3 in annealing buffer, in a PCR tube. • 2. Place the PCR tube on a heat block, heat at 95° C. for 3 minutes, then drop in 0.2° C. increments over 2 minutes, stopping at 25° C. • 3. Remove the tube and let the tube cool at room temperature. • 4. Transfer 10 μL of 3× final concentration test compounds or DMSO to the appropriate wells of a microtiter plate. • 5. Transfer 10 μL of 3× final concentration enzyme in assay buffer or assay buffer alone to the appropriate wells. • 6. Incubate the plate at room temperature for 15 minutes. • 7. Transfer 10 μL of 3× substrate in assay buffer to all the test wells. • 8. Incubate the plate at room temperature for prescribed reaction time. • 9. Centrifuge the plate at 1000 rpm for 1 minute. • 10. Transfer 10 μL of stop buffer to all the test wells. • 11. Centrifuge the plate at 1000 rpm for 1 minute. • 12. Read the plate on a plate reader.
As to `O=C(O)c1c(O)c(=O)n(Cc2ccccc2F)c2ccsc12` [Example 68, 4-(2-fluorobenzyl)-6-hydroxy-5-oxo-4,5-dihydrothieno[3,2-b]pyridine-7-carboxylic acid], the IC50 lay within 2.25 to 10 µM.
`O=C(O)c1c(O)c(=O)n(CC2CCOCC2)c2ccsc12` [Example 69, 6-hydroxy-5-oxo-4-[(tetrahydro-2H-pyran-4-yl)methyl]-4,5-dihydrothieno[3,2-b]pyridine-7-carboxylic acid] came in with an IC50 of 2.25 to 10 µM.
For `COc1ccc(Cn2c(=O)c(O)c(C(=O)O)c3sccc32)cc1OC` [Example 71, 4-(3,4-dimethoxybenzyl)-6-hydroxy-5-oxo-4,5-dihydrothieno[3,2-b]pyridine-7-carboxylic acid] the value was 0.25 to 0.75 µM.
For `Nc1ccc(Cn2c(=O)c(O)c(C(=O)O)c3sccc32)cc1Cl` [Example 73, 4-(4-amino-3-chlorobenzyl)-6-hydroxy-5-oxo-4,5-dihydrothieno[3,2-b]pyridine-7-carboxylic acid] the value was 0.25 to 0.75 µM; for `O=C(O)c1c(O)c(=O)n(CC2COCCO2)c2ccsc12` (stereo not drawn) [Example 74, 4-((1,4-dioxan-2-yl)methyl)-6-hydroxy-5-oxo-4,5-dihydrothieno[3,2-b]pyridine-7-carboxylic acid], 2.25 to 10 µM.
For `O=C1CC(Cn2c(=O)c(O)c(C(=O)O)c3sccc32)CN1` (stereo not drawn) [Example 76, 6-hydroxy-5-oxo-4-[(5-oxopyrrolidin-3-yl)methyl]-4,5-dihydrothieno[3,2-b]pyridine-7-carboxylic acid] the value was 0.25 to 0.75 µM; for `O=C(O)c1c(O)c(=O)n(Cc2ccc3ccc(=O)[nH]c3c2)c2ccsc12` [Example 77, 6-hydroxy-5-oxo-4-[(2-oxo-1,2-dihydroquinolin-7-yl)methyl]-4,5-dihydrothieno[3,2-b]pyridine-7-carboxylic acid], 0.25 to 0.75 µM; for `O=C(O)c1c(O)c(=O)n(CC2CCCOC2)c2ccsc12` (stereo not drawn) [Example 79, 6-hydroxy-5-oxo-4-[(tetrahydro-2H-pyran-3-yl)methyl]-4,5-dihydrothieno[3,2-b]pyridine-7-carboxylic acid], 2.25 to 10 µM.
Molecule `O=C(O)c1c(O)c(=O)n(CC2COc3ccccc3C2)c2ccsc12` (stereo not drawn) [Example 80, 4-(chroman-3-ylmethyl)-6-hydroxy-5-oxo-4,5-dihydrothieno[3,2-b]pyridine-7-carboxylic acid] yielded an IC50 of 2.25 to 10 µM.
For `Cc1cc(Cn2c(=O)c(O)c(C(=O)O)c3sccc32)no1` [Example 82, 6-hydroxy-4-[(5-methylisoxazol-3-yl)methyl]-5-oxo-4,5-dihydrothieno[3,2-b]pyridine-7-carboxylic acid] the value was 0.75 to 2.25 µM; for `COc1ccc(Cn2c(=O)c(O)c(C(=O)O)c3sccc32)cc1NC(C)=O` [Example 89, 4-(3-acetamido-4-methoxybenzyl)-6-hydroxy-5-oxo-4,5-dihydrothieno[3,2-b]pyridine-7-carboxylic acid], 0.25 to 0.75 µM.
For `O=C(O)c1c(O)c(=O)n(Cc2nnc(-c3ccccc3)s2)c2ccsc12` [Example 93, 6-hydroxy-5-oxo-4-[(5-phenyl-1,3,4-thiadiazol-2-yl)methyl]-4,5-dihydrothieno[3,2-b]pyridine-7-carboxylic acid] the value was less than 0.2 µM.
For `Cc1nnc(Cn2c(=O)c(O)c(C(=O)O)c3sccc32)s1` [Example 94, 6-hydroxy-4-[(5-methyl-1,3,4-thiadiazol-2-yl)methyl]-5-oxo-4,5-dihydrothieno[3,2-b]pyridine-7-carboxylic acid] the value was 0.25 to 0.75 µM; for `Cc1ncc(Cn2c(=O)c(O)c(C(=O)O)c3sccc32)o1` [Example 95, 6-hydroxy-4-[(2-methyloxazol-5-yl)methyl]-5-oxo-4,5-dihydrothieno[3,2-b]pyridine-7-carboxylic acid], 0.25 to 0.75 µM.
`O=C(O)c1c(O)c(=O)n(Cc2cn3ccccc3n2)c2ccsc12` [Example 102, 6-hydroxy-4-(imidazo[1,2-a]pyridin-2-ylmethyl)-5-oxo-4,5-dihydrothieno[3,2-b]pyridine-7-carboxylic acid] returned an IC50 of 0.75 to 2.25 µM.
